Three compounds from patent US20190374525A1, “TREATMENT OF DIABETES AND ASSOCIATED METABOLIC CONDITIONS WITH EPIGENETIC MODULATORS” (Temple Otorongo LLC, priority 2017, published 2019) can be followed below.

Common to all, as to format: in vivo
The test system of test [1] is leptin receptor deficient transgenic mouse model (db/db). The experiment in a line: blood glucose levels in mouse model of severe type 2 diabetes and obesity. The conditions noted are these: for blood glucose levels: mouse model of severe type 2 diabetes and obesity, FIG. 5 (Formula (I), 11 days), FIG. 7 (Formula (II), 19 days or 29-30 days). The procedure: (§1) Fed blood glucose levels were measured over a period of 28 days. Fasting glucose levels were measured on days 19, 29, and 30. Glucose clearance was measured using the glucose tolerance test on days 29 and 30. Body weight was also measured as compounds may regulate the expression of genes that are involved in obesity.

Test [2] has the same test system. Nature of the test: liver enzymes (ALT and AST) in blood serum, mouse model of Type 2 diabetes and severe obesity. The conditions noted are these: after 29-30 days; FIG. 11.
Test [3] can be described thus: body weight in mouse model of severe type 2 diabetes and obesity. Conditions: after 9 days of treatment; FIG. 8. The procedure:
as §1

Structures are written as SMILES.

As for `O=C(O)c1ccnc(C(=O)O)c1` [Formula (I), 2,4-pyridinedicarboxylic acid], the “fed and fasting glucose levels” value in test [1] (after 11 days of treatment, FIG. 5) was “decrease in fed and fasting glucose levels”. In test [1], the blood glucose levels result is “significantly decrease blood glucose levels”. Further, in test [2], the “lowering of enzymes (ALT and AST) associated with liver disease measured in blood serum” value is given as 68%.

With `O=C(O)CCNc1cc(N2CCc3ccccc3CC2)nc(-c2ccccn2)n1` [Formula (II)], in test [1], the blood glucose levels entry is “significantly decrease blood glucose levels”.

In the case of `CN(C)c1ccc(C(=O)NCCCCCC(=O)NO)cc1` [Formula (III)], the body weight entry in test [3] is “significantly decrease body weight”.
